Tested on: MPNST complex spheroid with HUVEC/MSC, growth, % test/control
Test: Anticancer human tumor MPNST cell line growth inhibition [Asc];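 note: compounds left on spheroids for seven days before reading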
Details: for IC50: curve of first compound; for viability, T/C: stronger effect = lower value
Summary of the method: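 Tumor cells were grown as multicellular spheroids with stromal HUVEC and mesenchymal stem cells and treated singly or in combination. Concentrations fell in half-log steps from the clinical Cmax, or from 10 microM where none was known.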

[1] = second compound 0.1 µM, first compound 0.00316 µM
[2] = second compound 0.1 µM, first compound 0.01 µM
[3] = second compound 0.1 µM, first compound 0.0316 µM
[4] = second compound 0.1 µM, first compound 0.1 µM
[5] = second compound 0.1 µM, first compound 0.316 µM
[6] = second compound 0.1 µM, first compound 1 µM
[7] = second compound 0.316 µM, first compound 0.00316 µM
[8] = second compound 0.316 µM, first compound 0.01 µM
[9] = second compound 0.316 µM, first compound 0.0316 µM
[10] = second compound 0.316 µM, first compound 0.1 µM
[11] = second compound 0.316 µM, first compound 0.316 µM
[12] = second compound 0.316 µM, first compound 1 µM
[13] = second compound 1 µM, first compound 0.00316 µM
[14] = second compound 1 µM, first compound 0.01 µM
[15] = second compound 1 µM, first compound 0.0316 µM
[16] = second compound 1 µM, first compound 0.1 µM
[17] = second compound 1 µM, first compound 0.316 µM
[18] = second compound 1 µM, first compound 1 µM
[19] = second compound 3.16 µM, first compound 0.00316 µM
[20] = second compound 3.16 µM, first compound 0.01 µM
[21] = second compound 3.16 µM, first compound 0.0316 µM
[22] = second compound 3.16 µM, first compound 0.1 µM
[23] = second compound 3.16 µM, first compound 0.316 µM
[24] = second compound 3.16 µM, first compound 1 µM
[25] = second compound 10 µM, first compound 0.00316 µM
[26] = second compound 10 µM, first compound 0.01 µM
[27] = second compound 10 µM, first compound 0.0316 µM
[28] = second compound 10 µM, first compound 0.1 µM
[29] = second compound 10 µM, first compound 0.316 µM
[30] = second compound 10 µM, first compound 1 µM

With `CCN1CCN(Cc2ccc(Nc3ncc(F)c(-c4cc(F)c5nc(C)n(C(C)C)c5c4)n3)nc2)CC1` + Cc1c(S(C)(=O)=O)c(-c2cc(F)cc(N3CCN(c4ccc(NS(=O)(=O)c5ccc(NC(CCN6CCC(C(=O)OCCCP(=O)(O)O)CC6)CSc6ccccc6)c(S(=O)(=O)C(F)(F)F)c5)cc4)CC3)c2)c(-c2ccc(Cl)cc2)n1C(C)C the IC50 (second compound 0.1 µM) was greater than 1 µM, the IC50 (second compound 0.316 µM) was greater than 1 µM and the IC50 (second compound 1 µM) was greater than 1 µM. It also gave an IC50 (second compound 3.16 µM) of 1 µM, an IC50 (second compound 10 µM) of 0.316 µM and a viability, T/C [1] of 75.8%. The viability, T/C [2] was 72.3%, the viability, T/C [3] was 73.7% and the viability, T/C [4] was 78.3%. The viability, T/C [5] was 55.8%, the viability, T/C [6] was 64.5% and the viability, T/C [7] was 82.8%. For the same compound, the viability, T/C [8] was 54.8%, the viability, T/C [9] was 75.6% and the viability, T/C [10] was 84.2%. The viability, T/C [11] was 53.5%, the viability, T/C [12] was 58% and the viability, T/C [13] was 76.6%. For the same compound, the viability, T/C [14] was 78.5%, the viability, T/C [15] was 76.9% and the viability, T/C [16] was 62.3%. For the same compound, the viability, T/C [17] was 53%, the viability, T/C [18] was 55.1% and the viability, T/C [19] was 73.3%. The viability, T/C [20] was 77.9%, the viability, T/C [21] was 57% and the viability, T/C [22] was 47.6%. For the same compound, the viability, T/C [23] was 56.3%, the viability, T/C [24] was 47.3% and the viability, T/C [25] was 83.5%. The viability, T/C [26] was 91.4%, the viability, T/C [27] was 50.2% and the viability, T/C [28] was 52.8%. The viability, T/C [29] was 55.4% and the viability, T/C [30] was 47.1%.
With `COc1c(OCCCN2CCOCC2)ccc2c3n(c(=NC(=O)c4cnc(N)nc4)nc12)CCN3` + Cc1c(S(C)(=O)=O)c(-c2cc(F)cc(N3CCN(c4ccc(NS(=O)(=O)c5ccc(NC(CCN6CCC(C(=O)OCCCP(=O)(O)O)CC6)CSc6ccccc6)c(S(=O)(=O)C(F)(F)F)c5)cc4)CC3)c2)c(-c2ccc(Cl)cc2)n1C(C)C the IC50 (second compound 0.1 µM) was 0.0681 µM, the IC50 (second compound 0.316 µM) was 0.0503 µM and the IC50 (second compound 1 µM) was 0.0628 µM. It also gave an IC50 (second compound 3.16 µM) of 0.0317 µM, an IC50 (second compound 10 µM) of 0.0293 µM and a viability, T/C [1] of 60.5%. The viability, T/C [2] was 71.7%, the viability, T/C [3] was 62.3% and the viability, T/C [4] was 41.8%. It also gave a viability, T/C [5] of 30.4%, a viability, T/C [6] of 18.6% and a viability, T/C [7] of 72.6%. It also gave a viability, T/C [8] of 62.3%, a viability, T/C [9] of 61.7% and a viability, T/C [10] of 35%. The viability, T/C [11] was 23.8%, the viability, T/C [12] was 16.8% and the viability, T/C [13] was 75.9%. For the same compound, the viability, T/C [14] was 77.1%, the viability, T/C [15] was 62.4% and the viability, T/C [16] was 40.1%. For the same compound, the viability, T/C [17] was 25.2%, the viability, T/C [18] was 14.4% and the viability, T/C [19] was 79.3%. The viability, T/C [20] was 69.5%, the viability, T/C [21] was 49.7% and the viability, T/C [22] was 31.1%. For the same compound, the viability, T/C [23] was 18.9%, the viability, T/C [24] was 16.8% and the viability, T/C [25] was 90.1%. It also gave a viability, T/C [26] of 71.8%, a viability, T/C [27] of 48.5% and a viability, T/C [28] of 27.5%. It also gave a viability, T/C [29] of 18.3% and a viability, T/C [30] of 8.75%.
Compound `NC(=O)C(=Cn1cnc(-c2cc(C(F)(F)F)cc(C(F)(F)F)c2)n1)c1cncnc1` + Cc1c(S(C)(=O)=O)c(-c2cc(F)cc(N3CCN(c4ccc(NS(=O)(=O)c5ccc(NC(CCN6CCC(C(=O)OCCCP(=O)(O)O)CC6)CSc6ccccc6)c(S(=O)(=O)C(F)(F)F)c5)cc4)CC3)c2)c(-c2ccc(Cl)cc2)n1C(C)C has an IC50 (second compound 0.1 µM) greater than 0.3 µM, an IC50 (second compound 0.316 µM) of 0.172 µM and an IC50 (second compound 1 µM) of 0.072 µM. It also gave an IC50 (second compound 3.16 µM) of 0.0374 µM, an IC50 (second compound 10 µM) of 0.0756 µM and a viability, T/C (second compound 0.1 µM, first compound 0.000949 µM) of 56.9%. The viability, T/C (second compound 0.1 µM, first compound 0.003 µM) was 65.2%, the viability, T/C (second compound 0.1 µM, first compound 0.00949 µM) was 59% and the viability, T/C (second compound 0.1 µM, first compound 0.03 µM) was 80.2%. For the same compound, the viability, T/C (second compound 0.1 µM, first compound 0.0949 µM) was 66.9%, the viability, T/C (second compound 0.1 µM, first compound 0.3 µM) was 44.9% and the viability, T/C (second compound 0.316 µM, first compound 0.000949 µM) was 68.9%. For the same compound, the viability, T/C (second compound 0.316 µM, first compound 0.003 µM) was 80%, the viability, T/C (second compound 0.316 µM, first compound 0.00949 µM) was 74.3% and the viability, T/C (second compound 0.316 µM, first compound 0.03 µM) was 64.3%. The viability, T/C (second compound 0.316 µM, first compound 0.0949 µM) was 61.5%, the viability, T/C (second compound 0.316 µM, first compound 0.3 µM) was 40.6% and the viability, T/C (second compound 1 µM, first compound 0.000949 µM) was 78.6%. It also gave a viability, T/C (second compound 1 µM, first compound 0.003 µM) of 75.8%, a viability, T/C (second compound 1 µM, first compound 0.00949 µM) of 67.9% and a viability, T/C (second compound 1 µM, first compound 0.03 µM) of 54.4%. For the same compound, the viability, T/C (second compound 1 µM, first compound 0.0949 µM) was 50.6%, the viability, T/C (second compound 1 µM, first compound 0.3 µM) was 41.5% and the viability, T/C (second compound 3.16 µM, first compound 0.000949 µM) was 65.3%. It also gave a viability, T/C (second compound 3.16 µM, first compound 0.003 µM) of 78.5%, a viability, T/C (second compound 3.16 µM, first compound 0.00949 µM) of 70.1% and a viability, T/C (second compound 3.16 µM, first compound 0.03 µM) of 51.5%. The viability, T/C (second compound 3.16 µM, first compound 0.0949 µM) was 44.6%, the viability, T/C (second compound 3.16 µM, first compound 0.3 µM) was 39.3% and the viability, T/C (second compound 10 µM, first compound 0.000949 µM) was 73.3%. For the same compound, the viability, T/C (second compound 10 µM, first compound 0.003 µM) was 72.4%, the viability, T/C (second compound 10 µM, first compound 0.00949 µM) was 65.6% and the viability, T/C (second compound 10 µM, first compound 0.03 µM) was 58.4%. For the same compound, the viability, T/C (second compound 10 µM, first compound 0.0949 µM) was 48% and the viability, T/C (second compound 10 µM, first compound 0.3 µM) was 34.6%.
With `NC1CCC(NC2CC2c2ccccc2)CC1` (stereo not given) + Cc1c(S(C)(=O)=O)c(-c2cc(F)cc(N3CCN(c4ccc(NS(=O)(=O)c5ccc(NC(CCN6CCC(C(=O)OCCCP(=O)(O)O)CC6)CSc6ccccc6)c(S(=O)(=O)C(F)(F)F)c5)cc4)CC3)c2)c(-c2ccc(Cl)cc2)n1C(C)C the IC50 (second compound 0.1 µM) was greater than 0.1 µM, the IC50 (second compound 0.316 µM) was greater than 0.1 µM and the IC50 (second compound 1 µM) was greater than 0.1 µM. The IC50 (second compound 3.16 µM) was greater than 0.1 µM, the IC50 (second compound 10 µM) was greater than 0.1 µM and the viability, T/C (second compound 0.1 µM, first compound 0.000316 µM) was 67.4%. It also gave a viability, T/C (second compound 0.1 µM, first compound 0.001 µM) of 71.3%, a viability, T/C [1] of 63.5% and a viability, T/C [2] of 75%. For the same compound, the viability, T/C [3] was 72.4%, the viability, T/C [4] was 64.2% and the viability, T/C (second compound 0.316 µM, first compound 0.000316 µM) was 81.8%. For the same compound, the viability, T/C (second compound 0.316 µM, first compound 0.001 µM) was 67.6%, the viability, T/C [7] was 87.1% and the viability, T/C [8] was 64.5%. It also gave a viability, T/C [9] of 66.4%, a viability, T/C [10] of 61.8% and a viability, T/C (second compound 1 µM, first compound 0.000316 µM) of 73.8%. It also gave a viability, T/C (second compound 1 µM, first compound 0.001 µM) of 63.2%, a viability, T/C [13] of 70.4% and a viability, T/C [14] of 66.5%. For the same compound, the viability, T/C [15] was 69.4%, the viability, T/C [16] was 59.8% and the viability, T/C (second compound 3.16 µM, first compound 0.000316 µM) was 60.8%. For the same compound, the viability, T/C (second compound 3.16 µM, first compound 0.001 µM) was 81.5%, the viability, T/C [19] was 64.9% and the viability, T/C [20] was 65.8%. For the same compound, the viability, T/C [21] was 65.4%, the viability, T/C [22] was 54.1% and the viability, T/C (second compound 10 µM, first compound 0.000316 µM) was 79%. The viability, T/C (second compound 10 µM, first compound 0.001 µM) was 83.2%, the viability, T/C [25] was 69.2% and the viability, T/C [26] was 69.7%. For the same compound, the viability, T/C [27] was 65.9% and the viability, T/C [28] was 62%.
